In ChEMBL document CHEMBL3638975, “Aminomethyl-4-imidazoles” (2013):

Target: Trace amine-associated receptor 1 (Mus musculus, UniProt Q923Y8)
Assay: Binding Assay: Radioligand binding assay: The radioligand [3H]-rac-2-(1,2,3,4-tetrahydro-1-naphthyl)-2-imidazoline was used at a concentration equal to the calculated Kd value of 60 nM to give a total binding at around 0.1% of the total added radioligand concentration, and a specific binding which represented approximately 70-80% of the total binding.

Trace amine-associated receptor 1, sequence (Q923Y8 whole entry): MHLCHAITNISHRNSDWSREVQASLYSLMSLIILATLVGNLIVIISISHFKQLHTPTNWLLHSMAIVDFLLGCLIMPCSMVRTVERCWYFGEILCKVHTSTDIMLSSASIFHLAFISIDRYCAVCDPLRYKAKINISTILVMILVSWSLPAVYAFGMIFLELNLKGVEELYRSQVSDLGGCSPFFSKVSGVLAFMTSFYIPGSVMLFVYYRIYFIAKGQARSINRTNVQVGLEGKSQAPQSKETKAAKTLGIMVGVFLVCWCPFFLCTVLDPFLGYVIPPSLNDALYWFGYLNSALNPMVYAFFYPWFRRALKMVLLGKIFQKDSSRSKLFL

SMILES	Ki
CN(Cc1cnc[nH]1)c1cccc(F)c1	2.9 nM
CCN(Cc1cnc[nH]1)c1ccc(CCc2ccc(Cl)cc2)cc1	7.2 nM
